US20230074545A1, “TREATMENT OF CANCER WITH CDK12/13 INHIBITORS” (Kinnate Biopharma Inc., priority 2019, published 2023)
Like-named read-outs stand apart in the source and are kept apart here.

Experiments:
OVCAR-3 cells = test: OVCAR-3 cell proliferation (CellTiter-Glo); type: cell-based; conditions: Homo sapiens, read-out: Inhibition of proliferation of OVCAR3 cells (IC50 in M)
Excerpt: OVCAR-3 was used as the cell line to model for ovarian cancer in vitro and in vivo. This cell line was obtained from ATCC (Catalog #HTB-161) and is an adenocarcinoma line from the malignant ascites of a patient with progressive adenocarcinoma of the ovary and embodies a preclinical model of high-grade, serous ovarian cancer (HGSOC). OVCAR-3 has been deemed an appropriate model system in which to study drug resistance in ovarian cancer, and the presence of hormone receptors should be useful for the evaluation of hormonal therapy. OVCAR-3 is resistant to clinically relevant concentrations of adriamycin, melphalan and cisplatin.
(§1) Compounds 1-5 were tested at different concentrations (from 4 μM to 126.4 pM; 0.5 log serial dilutions) for their ability to inhibit the proliferation of OVCAR-3 cells. Cells were grown in ATCC-formulated RPMI-1640 Medium (ATCC 30-2001)+10% FBS. The cells were cultured at 37° C. in a humidified chamber in the presence of 5% CO2. Proliferation assays were conducted over a 72 hour time period.
(§2) Cells were cultured and maintained as described above, with cells always fed on the day prior to assay. Assays were run with a 2 hour compound exposure followed by a washout and then a 72 hour proliferation time or exposed to the test compounds for 72 hours with no washout of compound. DMSO was used as a control in all wells not receiving test compound and DMSO wells were used for plate normalization. Proliferation and survival of cells was quantified based on the amount of total ATP following cell lysis as determined by using a standard assay kit used according to manufacturer's instructions. Experiments were performed in the same media used by each cell type for growth and maintenance. Cells (5×10^4) were plated in 96 well plates for compound exposure. CellTiter-Glo® (Promega Corporation, Madison, Wis. USA) was used to assess the anti-proliferative effects of the compounds following manufacturer's directions and utilizing the reagents supplied with the CellTiter-Glo® kit.

CDK13 = biological target: T1, CDK13 (Homo sapiens, UniProt Q14004); test: Radiometric kinase assay (33PanQinase); type: biochemical; conditions: read-out: Inhibition of CDK Activity (molar inhibition in a radiometric assay)
T1 construct: either as full-length or enzymatically active fragments; purchased ProQinase GmbH (Reaction Biology)
Experimental: (§3) The compounds 1-5 (see Table 1) were assayed for kinase activity at ProQinase (ProQinase GmbH, Reaction Biology; Freiburg, Germany) using their commercially available radiometric kinase assay services. Briefly, the compounds were provided as solids and were dissolved to 1×10^−03 M/100% DMSO stock solutions on the day of assay. All protein kinases were provided by ProQinase and were expressed in Sf9 insect cells or in E. coli as recombinant GST-fusion proteins or His-tagged proteins, either as full-length or enzymatically active fragments. All kinases were produced from human cDNAs and purified by either GSH-affinity chromatography or immobilized metal. The purity of the protein kinases was examined by SDS-PAGE/Coomassie staining, the identity was checked by mass spectroscopy. A radiometric protein kinase assay (^33PanQinase® Activity Assay) was used for measuring the kinase activity of the protein kinase. All kinase assays were performed in 96-well FlashPlates™ from PerkinElmer (Boston, Mass., USA) in a 50 microliter reaction volume. The reaction cocktail was pipetted in four steps in the following order: 1) 25 microliter of assay buffer (standard buffer/[gamma-^33P]-ATP); 2) 10 microliter of ATP solution (in H2O); 3) 5 microliter of test compound (in 10% DMSO); 4) 10 microliter of enzyme/substrate mixture.
(§4) As a parameter for assay quality, the Z′-factor (Zhang et al., J. Biomol. Screen. 2: 67-73, 1999) for the low and high controls of each assay plate (n=8) was used. ProQinase's criterion for repetition of an assay plate is a Z′-factor below 0.4.

CDK7 = biological target: T2, CDK7 (Homo sapiens, UniProt P50613); test: Radiometric kinase assay (33PanQinase); type: biochemical; conditions: read-out: Inhibition of CDK Activity (molar inhibition in a radiometric assay)
T2 construct: either as full-length or enzymatically active fragments; purchased ProQinase GmbH (Reaction Biology); host or cells: Sf9 insect cells or E. coli
T2 sequence (P50613 whole entry, the tested form may be a part): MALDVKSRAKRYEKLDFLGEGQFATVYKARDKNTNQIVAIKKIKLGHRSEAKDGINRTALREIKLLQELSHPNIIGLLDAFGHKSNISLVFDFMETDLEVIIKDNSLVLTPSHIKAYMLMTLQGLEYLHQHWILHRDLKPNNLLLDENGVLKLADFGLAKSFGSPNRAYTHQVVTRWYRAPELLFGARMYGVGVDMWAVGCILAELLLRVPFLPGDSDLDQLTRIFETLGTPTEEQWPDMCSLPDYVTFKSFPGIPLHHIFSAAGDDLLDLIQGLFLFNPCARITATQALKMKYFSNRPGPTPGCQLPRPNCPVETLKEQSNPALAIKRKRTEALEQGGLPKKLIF
T2 sequence (P51946 whole entry partner, the tested form may be a part): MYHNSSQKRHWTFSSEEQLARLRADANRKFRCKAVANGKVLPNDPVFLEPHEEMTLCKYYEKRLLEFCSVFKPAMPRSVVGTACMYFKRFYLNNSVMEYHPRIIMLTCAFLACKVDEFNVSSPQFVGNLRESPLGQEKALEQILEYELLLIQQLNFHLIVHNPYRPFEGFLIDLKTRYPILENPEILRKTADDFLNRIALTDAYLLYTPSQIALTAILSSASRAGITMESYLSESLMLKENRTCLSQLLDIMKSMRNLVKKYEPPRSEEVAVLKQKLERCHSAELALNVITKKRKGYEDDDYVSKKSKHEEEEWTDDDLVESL
T2 sequence (P51948 whole entry partner, the tested form may be a part): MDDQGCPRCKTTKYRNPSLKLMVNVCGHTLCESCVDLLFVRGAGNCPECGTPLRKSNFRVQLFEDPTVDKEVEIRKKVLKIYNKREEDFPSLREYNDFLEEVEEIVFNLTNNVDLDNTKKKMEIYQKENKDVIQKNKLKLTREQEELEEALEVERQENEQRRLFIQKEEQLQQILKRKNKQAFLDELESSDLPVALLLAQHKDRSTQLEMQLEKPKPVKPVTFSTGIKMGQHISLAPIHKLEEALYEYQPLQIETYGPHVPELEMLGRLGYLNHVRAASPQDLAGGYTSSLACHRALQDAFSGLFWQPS
Experimental: as §3, §4

CDK2 = biological target: T3, CDK2 (Homo sapiens, UniProt P24941); test: Radiometric kinase assay (33PanQinase); type: biochemical; conditions: read-out: Inhibition of CDK Activity (molar inhibition in a radiometric assay)
T3 construct: either as full-length or enzymatically active fragments; purchased ProQinase GmbH (Reaction Biology); host or cells: Sf9 insect cells or E. coli
Experimental: as §3, §4

CDK9 = biological target: T4, CDK9 (Homo sapiens, UniProt P50750); test: Radiometric kinase assay (33PanQinase); type: biochemical; conditions: read-out: Inhibition of CDK Activity (molar inhibition in a radiometric assay)
T4 construct: either as full-length or enzymatically active fragments; purchased ProQinase GmbH (Reaction Biology); host or cells: Sf9 insect cells or E. coli
T4 sequence (P50750 whole entry, the tested form may be a part): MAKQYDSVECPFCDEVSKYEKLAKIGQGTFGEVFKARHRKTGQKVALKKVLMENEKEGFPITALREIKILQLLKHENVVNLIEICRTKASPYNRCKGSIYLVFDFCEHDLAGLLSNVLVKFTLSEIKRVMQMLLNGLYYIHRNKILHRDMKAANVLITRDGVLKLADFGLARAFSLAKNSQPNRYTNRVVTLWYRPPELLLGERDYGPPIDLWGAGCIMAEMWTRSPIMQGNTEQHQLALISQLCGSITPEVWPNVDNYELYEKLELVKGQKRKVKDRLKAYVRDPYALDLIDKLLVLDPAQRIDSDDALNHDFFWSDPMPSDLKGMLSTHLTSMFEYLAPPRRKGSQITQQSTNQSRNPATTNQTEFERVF
T4 sequence (O60563 whole entry partner, the tested form may be a part): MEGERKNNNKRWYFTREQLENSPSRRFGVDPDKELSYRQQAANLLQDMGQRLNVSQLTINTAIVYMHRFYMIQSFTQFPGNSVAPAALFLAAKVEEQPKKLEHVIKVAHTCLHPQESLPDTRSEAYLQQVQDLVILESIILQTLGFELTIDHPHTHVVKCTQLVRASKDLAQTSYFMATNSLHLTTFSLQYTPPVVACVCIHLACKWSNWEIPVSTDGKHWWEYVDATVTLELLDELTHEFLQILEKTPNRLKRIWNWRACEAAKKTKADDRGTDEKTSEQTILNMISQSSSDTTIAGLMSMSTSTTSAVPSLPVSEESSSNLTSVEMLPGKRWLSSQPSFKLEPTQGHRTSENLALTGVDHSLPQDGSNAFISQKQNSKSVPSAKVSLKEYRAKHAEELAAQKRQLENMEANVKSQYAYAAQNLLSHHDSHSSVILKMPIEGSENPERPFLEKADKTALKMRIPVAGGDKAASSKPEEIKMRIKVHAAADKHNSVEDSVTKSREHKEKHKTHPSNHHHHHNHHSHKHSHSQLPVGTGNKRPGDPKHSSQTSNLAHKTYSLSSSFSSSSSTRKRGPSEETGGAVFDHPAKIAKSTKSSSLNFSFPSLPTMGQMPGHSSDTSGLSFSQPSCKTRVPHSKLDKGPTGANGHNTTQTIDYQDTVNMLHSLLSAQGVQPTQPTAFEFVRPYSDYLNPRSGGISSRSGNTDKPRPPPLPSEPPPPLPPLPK
Experimental: as §3, §4

CDK12 = biological target: T5, CDK12 (Homo sapiens, UniProt Q9NYV4); test: Radiometric kinase assay (33PanQinase); type: biochemical; conditions: read-out: Inhibition of CDK Activity (molar inhibition in a radiometric assay)
T5 construct: either as full-length or enzymatically active fragments; purchased ProQinase GmbH (Reaction Biology)
T5 sequence (Q9NYV4 whole entry, the tested form may be a part): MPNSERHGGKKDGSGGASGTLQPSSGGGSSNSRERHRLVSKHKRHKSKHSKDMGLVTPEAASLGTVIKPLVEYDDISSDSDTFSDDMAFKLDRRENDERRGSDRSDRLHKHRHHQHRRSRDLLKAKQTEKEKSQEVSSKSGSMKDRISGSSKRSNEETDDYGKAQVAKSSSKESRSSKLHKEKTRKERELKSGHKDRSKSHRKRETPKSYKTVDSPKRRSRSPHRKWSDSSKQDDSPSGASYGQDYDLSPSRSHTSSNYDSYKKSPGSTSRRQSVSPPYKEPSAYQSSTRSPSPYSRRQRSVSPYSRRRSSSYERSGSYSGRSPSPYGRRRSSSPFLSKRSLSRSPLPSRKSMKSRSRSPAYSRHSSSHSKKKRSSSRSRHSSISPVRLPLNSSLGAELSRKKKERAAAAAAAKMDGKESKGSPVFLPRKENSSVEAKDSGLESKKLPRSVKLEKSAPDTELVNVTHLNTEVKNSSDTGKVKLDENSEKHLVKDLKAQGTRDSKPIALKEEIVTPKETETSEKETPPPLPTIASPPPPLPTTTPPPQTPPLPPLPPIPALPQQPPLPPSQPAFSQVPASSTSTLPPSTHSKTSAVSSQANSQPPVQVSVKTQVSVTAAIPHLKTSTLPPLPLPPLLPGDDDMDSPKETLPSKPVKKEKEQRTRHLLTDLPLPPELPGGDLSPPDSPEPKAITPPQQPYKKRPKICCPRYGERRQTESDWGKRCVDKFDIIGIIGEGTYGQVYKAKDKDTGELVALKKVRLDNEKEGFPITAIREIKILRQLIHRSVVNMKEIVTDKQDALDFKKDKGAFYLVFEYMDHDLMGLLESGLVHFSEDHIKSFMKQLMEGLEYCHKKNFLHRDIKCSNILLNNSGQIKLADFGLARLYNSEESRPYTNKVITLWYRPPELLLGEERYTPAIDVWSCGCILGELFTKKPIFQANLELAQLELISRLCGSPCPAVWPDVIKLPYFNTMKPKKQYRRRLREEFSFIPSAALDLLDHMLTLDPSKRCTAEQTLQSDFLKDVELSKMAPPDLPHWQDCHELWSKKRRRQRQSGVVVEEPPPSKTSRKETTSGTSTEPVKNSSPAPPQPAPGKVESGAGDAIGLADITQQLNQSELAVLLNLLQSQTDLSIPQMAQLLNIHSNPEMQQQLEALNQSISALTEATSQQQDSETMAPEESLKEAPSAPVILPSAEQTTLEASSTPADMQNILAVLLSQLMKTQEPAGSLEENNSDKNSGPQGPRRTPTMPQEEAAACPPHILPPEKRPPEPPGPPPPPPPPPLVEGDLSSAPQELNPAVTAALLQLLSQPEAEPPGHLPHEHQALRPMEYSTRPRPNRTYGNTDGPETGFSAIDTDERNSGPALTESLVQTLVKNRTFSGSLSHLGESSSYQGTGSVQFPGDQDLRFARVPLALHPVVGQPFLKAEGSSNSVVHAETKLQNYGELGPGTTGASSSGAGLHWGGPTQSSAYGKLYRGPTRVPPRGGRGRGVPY
T5 sequence (O75909 whole entry partner, the tested form may be a part): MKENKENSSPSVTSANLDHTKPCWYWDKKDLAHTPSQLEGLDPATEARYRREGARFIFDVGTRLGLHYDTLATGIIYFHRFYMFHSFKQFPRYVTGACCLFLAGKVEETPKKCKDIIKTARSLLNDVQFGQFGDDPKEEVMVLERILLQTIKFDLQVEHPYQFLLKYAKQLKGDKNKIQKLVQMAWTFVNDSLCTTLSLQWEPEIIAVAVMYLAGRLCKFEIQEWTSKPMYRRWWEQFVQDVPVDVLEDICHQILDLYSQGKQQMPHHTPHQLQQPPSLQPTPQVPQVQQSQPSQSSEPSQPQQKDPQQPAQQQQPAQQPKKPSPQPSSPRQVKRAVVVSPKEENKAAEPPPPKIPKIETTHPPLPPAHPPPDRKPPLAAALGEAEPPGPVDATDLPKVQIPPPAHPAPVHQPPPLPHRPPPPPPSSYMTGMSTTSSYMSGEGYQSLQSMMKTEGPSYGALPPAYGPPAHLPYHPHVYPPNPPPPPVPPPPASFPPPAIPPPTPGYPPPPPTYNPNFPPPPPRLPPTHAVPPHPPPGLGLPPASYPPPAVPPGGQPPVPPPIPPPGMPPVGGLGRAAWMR
Experimental: as §3, §4

HCC70 cells = test: HCC70 cell proliferation (CellTiter-Glo); type: cell-based; conditions: Homo sapiens, read-out: Inhibition of Proliferation of HCC70 Cells (IC50 in M)
Experimental: HCC70 was the cell line used as a model of triple-negative breast cancer (TNBC). This cell line was obtained from ATCC and was initiated from a primary ductal carcinoma in 1992 (Catalog #CRL-2315; mammary gland primary ductal carcinoma). The HCC-70 tumor cell line was maintained in vitro as a monolayer culture in RPMI-1640 medium supplemented with 10% heat inactivated fetal bovine serum at 37° C. in an atmosphere of 5% CO2 in air.
as §1, with “Representative compounds” for “Compounds 1-5”, “HCC70” for “OVCAR-3”
as §2

RNA polymerase II [1] = test: Phosphorylation of RNA polymerase II (pS2/S2) in HCC70 xenograft; type: in vivo, CB-17 SCID mice; conditions: intravenous
Experimental: The ability of compound 4 and compound 5 to inhibit phosphorylation of RNA polymerase II at the S2 unit was analyzed in a mouse xenograft model of triple-negative breast cancer. CB-17 SCID mice were inoculated with the HCC70 cells as the in vivo model for triple negative breast cancer. Each mouse was inoculated subcutaneously on the right flank with HCC70 tumor cells (5×106) in 0.1 mL of RPMI-1640 Medium and Matrigel mixture (1:1 ratio) for tumor development. The treatment started when the mean tumor size reached approximately 100-150 mm^3. Mice were treated intravenously with vehicle only, 20 mg/kg of compound 4, 25 mg/kg of compound 4, 10 mg/kg of compound 5, or 25 mg/kg of compound 5 for 2 hours. Measurements were taken at 0.5 hours, 6 hours and 24 hours after the dose. The amount of phosphorylated RNA polymerase II and the total amount of RNA polymerase II was analyzed. The values were normalized by taking the ratio of the phosphorylated RNA polymerase II to the total RNA polymerase II (pS2/S2).

RNA polymerase II [2] = test: Inhibition of phosphorylation of RNA polymerase II in NCI-H82 cells; type: cell-based; conditions: Homo sapiens, 2 hours, phosphorylated/total RNA polymerase II
Experimental: CDK12 and CDK13 phosphorylate RNA polymerase II. The ability of compound 1 to inhibit phosphorylation of RNA polymerase II was analyzed in NCI-H82 cells. 200,000 cells were plated in each well of a 96 well MSD plate. Cells were treated with compound 1, THZ531 (a positive control), or E9 at concentrations between 4 μM to 126.4 pM (0.5 log serial dilutions) for 2 hours. THZ531 and E9 are further discussed in Gao et al, Cell Chemical Biology 2017. The amount of phosphorylated RNA polymerase II and the total amount of RNA polymerase II was analyzed using antibodies. The values were normalized by taking the ratio of the phosphorylated RNA polymerase II to the total RNA polymerase II. As depicted in FIG. 3A (THZ531), FIG. 3B (Compound 1), and Table 6, increasing the concentration of compound 1 results in a dose-specific increase in the inhibition of phosphorylation of RNA polymerase II.

[3] = OVCAR-3 (no washout), exposed for 72 hours
[4] = HCC70 (no washout), exposed for 72 hours
[5] = HCC70 (w/washout), 2 hour exposure, washout, 72 hour proliferation
[6] = OVCAR-3 (w/washout), 2 hour exposure, washout, 72 hour proliferation

Compound	IC50 (OVCAR-3 cells; [3])	IC50 (CDK13)	IC50 (CDK7)	IC50 (CDK2)	IC50 (CDK9)	IC50 (CDK12)	IC50 (HCC70 cells; [4])	IC50 (HCC70 cells; [5])	IC50 (OVCAR-3 cells; [6])	decrease in the pS2/S2 ratio, 25 mg/kg versus 10 mg/kg (RNA polymerase II [1]; all time points (0.5, 6, 24 hours))	pS2/S2 compared to treatment with the vehicle alone (RNA polymerase II [1]; compound 4 20 or 25 mg/kg, compound 5 10 or 25 mg/kg, 0.5, 6 and 24 hours after the dose)	IC50 (RNA polymerase II [2])
C=CC(=O)N(C)c1ccc(C(=O)N2CC[C@@H](Nc3ncc(Cl)c(OC)n3)C2)cc1 [Compound 2, (R)-N-(4-(3-((5-chloro-4-methoxypyrimidin-2-yl)amino)pyrrolidine-1-carbonyl)phenyl)-N-methylacrylamide]	7.63 nM	324 nM	518 nM	11300 nM	1320 nM	54.4 nM	11.3 nM	38 nM				
C=CC(=O)Nc1ccc(C(=O)N2CC[C@@H](Nc3ncc(Cl)cn3)C2)cc1 [Compound 3, (R)-N-(4-(3-((5-chloropyrimidin-2-yl)amino)pyrrolidine-1-carbonyl)phenyl)acrylamide]	7.45 nM	379 nM	2790 nM	7930 nM	1170 nM	96.7 nM	10.1 nM	110 nM	33.7 nM			
C#Cc1cnc(N[C@@H]2CCN(C(=O)c3ccc(NC(=O)C=C)cc3)C2)nc1 [Compound 5, (R)-N-(4-(3-((5-ethynylpyrimidin-2-yl)amino)pyrrolidine-1-carbonyl)phenyl)acrylamide]	10.1 nM	104 nM	3770 nM	3370 nM	1370 nM	59.3 nM	19.3 nM	82.1 nM	103 nM	greater decrease	reduced the pS2/S2 at all time points	
CN(C)C/C=C/C(=O)Nc1ccc(C(=O)N2CCC[C@@H](Nc3ncc(Cl)c(-c4c[nH]c5ccccc45)n3)C2)cc1 [THZ531, reference compound]												312 nM
